Measurements taken from patent US11384062B2 (CombiPhos Catalysts, Inc., priority 2017, dated 2022).

Assay: in vitro
Conditions: rat, microsomes
Protocol: Buffer solutions were prepared as follows: • a. Buffer A: 0.1 M monobasic potassium phosphate buffer containing 1.0 mM EDTA. • b. Buffer B: 0.1 M dibasic potassium phosphate buffer containing 1.0 mM EDTA. • c. Buffer C: 0.1 M potassium phosphate buffer containing 1.0 mM EDTA was adjusted to pH 7.4 by titrating 700 mL of Buffer B with Buffer A while monitoring with a pH meter. • 2. An NADPH stock solution (6 mM) was prepared by dissolving NADPH into Buffer C. • 3. Spiking solutions were prepared for the reference compound (ketanserin) and the test compounds as follows: • a. A 500 μM spiking solution of the reference compound (ketanserin) was generated by adding 10 μL of a 10 mM stock solution of ketanserin in DMSO into 190 μL acetonitrile. A 1.5 μM spiking solution in microsomes (0.75 mg/mL) was generated by adding 1.5 μL of the 500 μM spiking solution and 18.75 μL of 20 mg/mL rat liver microsomes into 479.75 μL of Buffer C while cooling with ice. • b. […] A 0.75 μM spiking solution in microsomes (0.75 mg/mL) was generated by adding 1.5 μL of the 250 μM spiking solution and 18.75 μL of 20 mg/mL rat liver microsomes into 479.75 μL of Buffer C while cooling with ice. • 4. 30 μL of 1.5 μM spiking solution containing 0.75 mg/mL microsomes solution was dispensed into assay plates designated for different time points (0 min, 5 min, 15 min, 30 min, and 45 min; or 0 min, 15 min, 30 min, 45 min, and 60 min as shown in Tables 1-5 below) while cooling with ice. • 5. For the 0 min time point assay plate, 135 μL of ACN containing IS followed immediately by 15 μL of the 6 mM NADPH stock solution were added to the wells of the 0 min assay plate. • 6. All assay plates other than the 0 min assay plate were pre-incubated at 37° C. for 5 min, and then 15 μL of the 6 mM NADPH stock solution was added to the wells of the assay plates to start the reaction and timing. At the appropriate time (5 min, 15 min, 30 min, 45 min, or 60 min), 135 μL of ACN containing IS was added to the wells of the corresponding assay plates, respectively, to stop the reaction. • 7. After quenching, the plates were shaken in a vibrator (IKA, MTS 2/4) for 10 min (600 rpm/min) and then centrifuged at 5594 g for 15 min (Thermo Multifuge×3R). • 8. After centrifugation, 50 μL of the supernatant from each well was transferred into a 96-well sample plate containing 50 μL of ultrapure water (Millipore, ZMQS50F01) for LC/MS analysis.

Compound: [2H]C1([2H])NC([2H])([2H])C([2H])(c2ccc(-n3cc4cccc(C(N)=O)c4n3)cc2)C([2H])([2H])C1([2H])[2H] (racemic) [Example 3, 2-(4-(piperidin-3-yl-2,2,3,4,4,5,5,6,6-d9)phenyl)-2H-indazole-7-carboxamide]
- Percent Remaining (%) 0 min (0 h, 0.5 µM, pH 7.4): 100.00%
- Percent Remaining (%) 15 min (0.25 h, 0.5 µM, pH 7.4): 92.77%
- Percent Remaining (%) 30 min (0.5 h, 0.5 µM, pH 7.4): 82.19%
- Percent Remaining (%) 45 min (0.75 h, 0.5 µM, pH 7.4): 74.60%
- Percent Remaining (%) 60 min (1 h, 0.5 µM, pH 7.4): 69.31%
- CLint scaled at 0.5 µM (pH 7.4, Clint): 22.7 mL/min/kg
- half-life at 0.5 µM (pH 7.4, T1/2): 109 min
